Data taken from patent publication US20170360795A1, “TREATMENT OF CANCERS USING PI3 KINASE ISOFORM MODULATORS” (INFINITY PHARMACEUTICALS, INC., priority 2013, published 2017).
Entries after “also recorded” stand apart in the source; their conditions may differ.

Experiments:
[1] = clinical study in healthy adult subjects: safety; format: in vivo, human
[2] = Pharmacokinetics / absolute bioavailability, mouse; format: in vivo, BALB/c mouse; conditions: PO, 10 mg/kg, calculated using AUC0-last
human P-glycoprotein = target: T1, human P-glycoprotein (Homo sapiens, UniProt P08183); assay: Caco-2 cell monolayers: membrane permeability and P-glycoprotein interaction; format: in vitro ADME
T1 construct: assessed in vitro using Caco-2 cell monolayers; endogenous in cells; host or cells: Caco-2

[3] = tested on: pAKT, pPRAS40 and pS6 in SU-DHL-6, SU-DHL-4 and Ri-1; assay: western blot of PI3K pathway proteins in DLBCL cell lines; format: cell-based
Protocol: At 1 hour after the treatment, levels of various proteins were assessed by western blot, the results of which are shown in FIG. 31.
Activation of the PI3K pathway is an important component of normal B-cell receptor (BCR) signaling and has been implicated in the pathogenesis of DLBCL. […] There was rapid modulation of phospho-AKT and phospho-PRAS40 by 30 minutes, whereas modulation of phospho-S6 was not detected until after 8 hours.

[4] = tested on: serum cytokines/chemokines; assay: serum cytokines/chemokines of patients by Milliplex immuno-assay; format: in vivo, human
Protocol: Serum concentrations of a panel of human cytokines/chemokines were determined by Milliplex 96-well immuno-assay as described below.
the blood was allowed to clot for at least 30 minutes before centrifugation for 10 minutes at 1000×g. Serum was removed and either assayed immediately or aliquoted and stored at ≦−20° C. When using frozen samples, it is recommended to thaw the samples completely, mix well by vortexing and centrifuge prior to use in the assay to remove particulates.
1.0 mL deionized water was added to the bottle containing lyophilized Serum Matrix (catalog number MX HSM from MILLIPLEX® Map), and was allowed to be mixed will for at least 10 minutes for complete reconstitution.
200 μL of wash buffer was added into each well of the plate. The plate was sealed and mixed on a plate shaker for 10 minutes at room temperature (20-25° C.). The wash buffer was decanted and the residual amount was removed from all wells by inverting the plate and tapping it smartly onto absorbent towels several times. 25 μL of each standard or control was added into the appropriate wells. Assay buffer was used for 0 pg/mL standard (Background). 25 μL of assay buffer was added to the sample wells. 25 μL of appropriate matrix solution was added to the background, standards, and control wells. 25 μL of serum sample was added into the appropriate wells. 25 μL of the mixed or premixed Beads for the tested cytokines/chemokines was added to each well. The plate was sealed with a plate sealer, wrapped with foil and incubated with agitation on a plate shaker overnight at 4° C. or 2 hours at room temperature (20-25° C.). An overnight incubation (16-18 hr) may improve assay sensitivity for some analytes. […]
The plate was run on Luminex 200™, HTS, FLEXMAP 3D™ or MAGPIX® with xPONENT software. The Median Fluorescent Intensity (MFI) data was saved and analyzed using a 5-parameter logistic or spline curve-fitting method for calculating cytokine/chemokines concentrations in samples.
The serum analytes examined included: (1) human cytokines/chemokinds (EGF, CCL11, FGF-2, Flt-3 ligand, CX3CL1, G-CSF, GM-CSF, CXCL1, CXCL10, IFNα2, IFNγ, IL-α, IL-β, IL-1ra, IL-2, sIL-2Rα, IL-3, IL-4, IL-5, IL-6, IL-7, IL-8, IL-9, IL-10, IL-12 (p40), IL-12 (p70), IL-13, IL-15, IL-17, IL-1ra, IL-1α, IL-13, IL-2, IL-3, CCL2, CCL7, CCL22, CCL3, CCL4, PDGF-AA, PDGF-AB/BB, CCL5, sCD40L, sIL-2Rα, TGFα, TNFα, TNFβ, VEGF, CCL21, CXCL13, CCL27, CXCL5, CCL24, CCL26, CCL1, IL-16, IL-20, IL-21, IL-23, IL-28, IL-33, LIF, CCL8, CCL13, CCL15, SCF, CXCL12, CCL17, TPO, TRAIL, and TSLP); and (2) matrix metaloproteinases (MMP-1, MMP-2, MMP-3, MMP-7, MMP-9, MMP-10, MMP-12, MMP-13, TIMP-1, and TIMP-2). The change in serum concentration of an analyte was determined by comparing the pre- and post-treatment serum samples.

OCI-LY-8 = assay: cellular growth inhibition assay, DLBCL; format: cell-based
[5] = Phase 1 dose-escalation study in hematologic malignancies: pharmacokinetics; format: in vivo, human; conditions: patients, over the dose range studied
Protocol: PK and PD markers were evaluated after the first dose (e.g., 8 mg BID) and at steady state. PD activity (PI3K inhibition) in whole blood was evaluated using a basophil activation assay which measured reduction in CD63 expression on the surface of basophils following ex vivo stimulation.

PTEN deletion cell lines = assay: sensitivity of PTEN deletion cell lines; format: cell-based
[6] = multiple doses for 2 weeks (n=36)
[7] = time-course in selected DLBCL cell lines

T1 sequence (P08183 whole entry): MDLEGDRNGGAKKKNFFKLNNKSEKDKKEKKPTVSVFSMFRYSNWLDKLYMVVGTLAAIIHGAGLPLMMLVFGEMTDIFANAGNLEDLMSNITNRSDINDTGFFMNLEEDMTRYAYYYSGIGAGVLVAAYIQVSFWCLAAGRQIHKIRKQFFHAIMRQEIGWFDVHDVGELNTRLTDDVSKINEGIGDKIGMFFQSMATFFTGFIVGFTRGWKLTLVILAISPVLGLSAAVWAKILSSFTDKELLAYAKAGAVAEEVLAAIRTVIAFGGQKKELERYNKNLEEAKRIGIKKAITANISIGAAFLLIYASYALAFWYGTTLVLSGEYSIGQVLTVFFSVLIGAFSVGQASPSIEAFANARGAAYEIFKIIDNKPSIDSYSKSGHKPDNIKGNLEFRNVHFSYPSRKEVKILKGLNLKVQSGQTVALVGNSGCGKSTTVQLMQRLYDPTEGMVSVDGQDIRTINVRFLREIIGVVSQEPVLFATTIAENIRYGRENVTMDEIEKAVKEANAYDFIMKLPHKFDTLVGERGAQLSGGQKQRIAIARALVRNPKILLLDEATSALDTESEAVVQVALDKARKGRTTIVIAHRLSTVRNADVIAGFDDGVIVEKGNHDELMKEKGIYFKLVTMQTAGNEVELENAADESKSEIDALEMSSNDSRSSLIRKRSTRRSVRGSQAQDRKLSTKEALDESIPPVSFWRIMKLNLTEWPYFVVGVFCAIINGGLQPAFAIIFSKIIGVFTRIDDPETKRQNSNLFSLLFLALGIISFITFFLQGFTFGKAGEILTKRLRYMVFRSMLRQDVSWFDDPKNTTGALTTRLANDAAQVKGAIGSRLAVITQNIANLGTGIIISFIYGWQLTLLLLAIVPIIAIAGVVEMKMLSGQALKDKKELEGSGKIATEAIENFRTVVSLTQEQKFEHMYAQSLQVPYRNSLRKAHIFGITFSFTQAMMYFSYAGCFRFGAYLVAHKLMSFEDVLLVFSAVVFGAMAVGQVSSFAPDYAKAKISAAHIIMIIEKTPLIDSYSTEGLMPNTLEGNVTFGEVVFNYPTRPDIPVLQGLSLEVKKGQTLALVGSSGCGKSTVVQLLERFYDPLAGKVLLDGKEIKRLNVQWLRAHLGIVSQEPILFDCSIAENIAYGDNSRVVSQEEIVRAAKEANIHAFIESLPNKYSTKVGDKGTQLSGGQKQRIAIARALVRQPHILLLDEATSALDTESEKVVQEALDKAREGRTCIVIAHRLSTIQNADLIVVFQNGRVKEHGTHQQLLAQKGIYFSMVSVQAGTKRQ

C[C@H](Nc1ncnc2[nH]cnc12)c1cc2cccc(Cl)c2c(=O)n1-c1ccccc1 [Compound 292]
deaths and serious adverse events (SAEs) ([1]; healthy subjects): no deaths and no serious adverse events
headache (non-procedural AE) [1, 6]: 8%
myalgia (non-procedural AE) [1, 6]: 6%
nasopharyngitis (non-procedural AE) [1, 6]: 6%
largest change from baseline in QTcF ([1]; serial ECGs, all study groups): 37 ms
subjects with QTcF greater than 500 msec ([1]; serial ECGs, all study groups): No subject
tolerability ([1]; single doses up to 30 mg, multiple doses up to 10 mg daily for 14 days): well tolerated; also recorded: well-tolerated
Foral [2]: 7i %
cell membrane permeability (human P-glycoprotein): moderate
inhibition of active transport of other P-gp substrates (human P-glycoprotein): has the potential to inhibit the active transport of other P-gp substrates
levels of pAKT, pPRAS40 and pS6 ([3]; 0.001-1 μM, 1 hour, western blot, SU-DHL-6, SU-DHL-4 and Ri-1): decrease
time to detection of modulation of phospho-S6 [3, 7]: > 8 h
time to modulation of phospho-AKT and phospho-PRAS40 [3, 7]: ≤ 30 min
serum levels of CXCL13, CCL3, CCL4, CCL17, CCL22, TNFα and IL-12 (p40) ([4]; CLL patients, 25 mg BID, C1D8 and C2D1 vs C1D1 predose): substantially reduced
serum concentrations of CXCL13, CCL4, CCL17, CCL22 and TNF-α ([4]; CLL/SLL and iNHL/MCL/FL patients): decreased serum concentrations
serum levels of CXCX13, CCL17, CCL22 and TNFα ([4]; iNHL patients, 28 days cycle, 25 mg BID): significant reduction
serum levels of CXCL13, CCL17 and MMP-9 ([4]; lymphoma patients, 25 mg BID, C1D8 and C2D1 vs C1D1): substantially reduced
IC50, cellular growth inhibition (OCI-LY-8; OCI-LY-8 (GCB), without BCR crosslinking): low micromolar (μM) range
sensitivity in cellular growth inhibition assay (OCI-LY-8; OCI-LY-8 with BCR crosslinking): nM range
plasma Cmax and AUC versus dose [5]: dose-proportional increases
sensitivity (PTEN deletion cell lines; 145 subsets of PTEN deletion cell lines): differentially susceptible
sensitivity (PTEN deletion cell lines; PTEN wild type cells): not sensitive
dose limiting toxicity (15 mg BID cohort): Grade 4 neutropenia
new Grade >3 neutropenia (20 patients, 8-50 mg BID): 6 (30%) n (%)
new Grade >3 thrombocytopenia (20 patients, 8-50 mg BID): 1 (5%) n (%)
patients with AEs Grade >3 (20 patients, 8-50 mg BID): 7 (35%) n (%)
patients with adverse events (AEs) (20 patients, 8-50 mg BID): 13 (65%) n (%)
Grade 3 ALT/AST elevations (20 patients, MM patient, onset 6 weeks after initiation of dosing): 1 (5%) n (%)
